The text below walks through data of patent publication US7524964B2, “Tetrahydrothiopyrano pyrazole cannabinoid modulators” (Janssen Pharmaceutica NV, priority 2005, dated 2009).

As usually defined, the IC50 is the concentration that inhibits the measured activity by half. Read a high IC50 as lower potency. As usually defined, the inhibition is the change of the read-out against control, counted positive when it falls.

In one experiment the target is human CB1 receptor (Homo sapiens, UniProt P21554). As to the kind of experiment: Binding assay, cannabinoid CB1 receptor ([3H]-CP-55,940 displacement). Also noted: expressed in transfected cells; host or cells: SK-N-MC cells, pcDNA3 CB-1 (human), semi-purified membranes. The settings on record: for inhibition at 0.2 µM: test concentration 0.2 μM (superscript a), read-out: CB1 binding percent inhibition. As for the experimental part: (§1) Binding Assay for CB1 or CB2 Agonists or Inverse Agonists
Chain of human CB1 receptor (P21554 whole entry): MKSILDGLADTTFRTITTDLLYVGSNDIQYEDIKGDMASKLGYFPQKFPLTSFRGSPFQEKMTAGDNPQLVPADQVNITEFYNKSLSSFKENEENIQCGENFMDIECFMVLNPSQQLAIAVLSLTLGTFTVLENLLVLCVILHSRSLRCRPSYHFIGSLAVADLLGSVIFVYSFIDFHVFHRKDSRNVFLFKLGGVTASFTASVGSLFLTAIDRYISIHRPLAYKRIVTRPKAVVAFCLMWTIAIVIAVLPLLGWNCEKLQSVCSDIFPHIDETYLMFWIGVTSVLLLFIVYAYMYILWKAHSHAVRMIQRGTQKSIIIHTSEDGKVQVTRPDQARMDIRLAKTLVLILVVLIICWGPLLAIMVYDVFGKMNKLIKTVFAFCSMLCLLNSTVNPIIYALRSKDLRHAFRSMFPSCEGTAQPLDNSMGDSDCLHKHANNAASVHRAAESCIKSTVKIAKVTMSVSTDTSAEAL
(§2) The human CB-1 and CB-2 receptors were stably expressed in SK-N-MC cells transfected with pcDNA3 CB-1 (human) or pcDNA3 CB-2 (human). The cells were grown in T-180 cell culture flasks under standard cell culture conditions at 37° C. in a 5% CO2 atmosphere. The cells were harvested by trypsinization and homogenized in a homogenization buffer (10 mM Tris, 0.2 mM MgCl2, 5 mM KCl, with protease inhibitors aprotinin, leupeptin, pepstatin A and bacitracin) and centrifuged (2000 g). The supernatant was then centrifuged in 2M sucrose (31,300 g) to produce a semi-purified membrane pellet. The pellet was resuspended in homogenization and store at −80° C.
(§3) On the day of the assay, the pellet was thawed on ice and diluted in assay buffer (50 mM Tris-HCl, 5 mM MgCl2, 2.5 mM EDTA, 0.5 mg/mL fatty acid free bovine serum albumin, pH 7.5). The diluted membrane was added with buffer, test compound or standard and the radioligand [H]^3+-CP-55,940_(0.2 nM) to the wells of a 96-well polypropylene plate. Non-specific binding was measured in wells containing 10 uM WIN 55,212. The plate was covered and incubated for 90 minutes at 30° C. The contents were then aspirated onto a Packard Unifilter G/C filter bottom plate prewet with 0.5% polyethyleneimine. The wells of the polypropylene plate were rinsed and aspirated seven times with a 0.9% saline-0.5% Tween 20 solution. The Unifilter plate was dried, a scintillation cocktail was added to each well and the counts representing binding were quantitated in a TopCount scintillation counter.
(§4) The IC50 binding values for compounds tested were calculated by linear regression and were obtained from studies in which varying compound concentrations were used. Where an IC50 was not obtained, test results are provided as percent inhibition at a test concentration of ^a0.2 μM, ^b1 μM or ^c10 μM.

The target of the next experiment is T1, human CB-2 receptor (Homo sapiens, UniProt P34972).
T1 construct: expressed in transfected cells; host or cells: SK-N-MC cells, pcDNA3 CB-2 (human), semi-purified membranes
T1 sequence (P34972 whole entry): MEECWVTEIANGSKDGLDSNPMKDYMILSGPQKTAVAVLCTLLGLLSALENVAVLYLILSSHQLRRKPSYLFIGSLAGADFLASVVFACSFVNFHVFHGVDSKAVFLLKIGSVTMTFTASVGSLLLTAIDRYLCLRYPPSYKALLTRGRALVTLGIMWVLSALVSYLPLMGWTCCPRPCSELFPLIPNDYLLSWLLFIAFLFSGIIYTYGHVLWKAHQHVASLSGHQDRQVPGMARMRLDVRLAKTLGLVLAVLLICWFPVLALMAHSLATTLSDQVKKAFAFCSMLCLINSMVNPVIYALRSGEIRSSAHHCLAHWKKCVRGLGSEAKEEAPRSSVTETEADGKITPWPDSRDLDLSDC
Nature of the experiment: Binding assay, cannabinoid CB2 receptor ([3H]-CP-55,940 displacement). The following applies: read-out: CB2 binding percent inhibition. As for the experimental part: as §1, §2, §3, §4

The mark [1] stands for this setting: test concentration 0.2 μM (superscript a).

Read-outs that look alike come from different tables or passages of the source.

Turning to `O=C(NN1CCCCC1)c1nn(-c2ccc(Cl)cc2Cl)c2c1CSC/C2=C\c1ccc(F)cc1` [Cpd 54, (7Z)-1-(2,4-dichloro-phenyl)-7-(4-fluoro-benzylidene)-1,4,6,7-tetrahydro-thiopyrano[4,3-c]pyrazole-3-carboxylic acid piperidin-1-ylamide], on human CB1 receptor, the IC50 stood at 34 nM. The inhibition at 0.2 µM at human CB-2 receptor (setting [1]) was found to be 25%.
`O=C(c1nn(-c2ccc(Cl)cc2Cl)c2c1CSC/C2=C\c1ccc(F)cc1)N1CCCCC1` [Cpd 55, (7Z)-[1-(2,4-dichloro-phenyl)-7-(4-fluoro-benzylidene)-1,4,6,7-tetrahydro-thiopyrano[4,3-c]pyrazol-3-yl]-piperidin-1-yl-methanone]: the inhibition at 0.2 µM was 52% at human CB1 receptor and 10% on human CB-2 receptor (setting [1]).
In the case of `O=C(NN1CCCC1)c1nn(-c2ccc(Cl)cc2Cl)c2c1CSC/C2=C\c1ccc(F)cc1` [Cpd 56, (7Z)-1-(2,4-dichloro-phenyl)-7-(4-fluoro-benzylidene)-1,4,6,7-tetrahydro-thiopyrano[4,3-c]pyrazole-3-carboxylic acid pyrrolidin-1-ylamide], the IC50 at human CB1 receptor worked out at 35 nM. Besides, the inhibition at 0.2 µM on human CB-2 receptor (setting [1]) was 15%.
Turning to `O=C(c1nn(-c2ccc(Cl)cc2Cl)c2c1CSC/C2=C\c1ccc(F)cc1)N1CCCC1` [Cpd 57, (7Z)-[1-(2,4-dichloro-phenyl)-7-(4-fluoro-benzylidene)-1,4,6,7-tetrahydro-thiopyrano[4,3-c]pyrazol-3-yl]-pyrrolidin-1-yl-methanone], the values for the inhibition at 0.2 µM on human CB1 receptor and at human CB-2 receptor (setting [1]) were 56% and 21%, respectively.
At human CB1 receptor, `O=C(N[C@@H]1c2ccccc2C[C@@H]1O)c1nn(-c2ccc(Cl)cc2Cl)c2c1CSC/C2=C\c1ccc(F)cc1` [Cpd 58, (7Z)-1-(2,4-dichloro-phenyl)-7-(4-fluoro-benzylidene)-1,4,6,7-tetrahydro-thiopyrano[4,3-c]pyrazole-3-carboxylic acid [(1R,2S)-2-hydroxy-indan-1-yl]-amide] showed an IC50 of 40 nM. In addition, the inhibition at 0.2 µM at human CB-2 receptor is 25%.
On the same counts, the results for `O=C(N[C@H]1c2ccccc2C[C@H]1O)c1nn(-c2ccc(Cl)cc2Cl)c2c1CSC/C2=C\c1ccc(F)cc1` [Cpd 59, (7Z)-1-(2,4-dichloro-phenyl)-7-(4-fluoro-benzylidene)-1,4,6,7-tetrahydro-thiopyrano[4,3-c]pyrazole-3-carboxylic acid [(1S,2R)-2-hydroxy-indan-1-yl]-amide] are 42 nM and 25%.
Consider `O=C(N[C@@H]1CCC[C@H]1O)c1nn(-c2ccc(Cl)cc2Cl)c2c1CSC/C2=C\c1ccc(F)cc1` [Cpd 60, (7Z)-1-(2,4-dichloro-phenyl)-7-(4-fluoro-benzylidene)-1,4,6,7-tetrahydro-thiopyrano[4,3-c]pyrazole-3-carboxylic acid [(1R,2R)-2-hydroxy-cyclopentyl]-amide], for which the inhibition at 0.2 µM at human CB1 receptor amounted to 60%; on human CB-2 receptor (setting [1]), 17%.
As to `O=C(N[C@@H]1CCCC[C@H]1O)c1nn(-c2ccc(Cl)cc2Cl)c2c1CSC/C2=C\c1ccc(F)cc1` [Cpd 61, (7Z)-1-(2,4-dichloro-phenyl)-7-(4-fluoro-benzylidene)-1,4,6,7-tetrahydro-thiopyrano[4,3-c]pyrazole-3-carboxylic acid [(1R,2R)-2-hydroxy-cyclohexyl]-amide], the inhibition at 0.2 µM at human CB1 receptor is 60%; on human CB-2 receptor (setting [1]) it was 31%.
The molecule `C[C@H](NC(=O)c1nn(-c2ccc(Cl)cc2Cl)c2c1CSC/C2=C\c1ccc(F)cc1)c1ccccc1` [Cpd 62, (7Z)-1-(2,4-dichloro-phenyl)-7-(4-fluoro-benzylidene)-1,4,6,7-tetrahydro-thiopyrano[4,3-c]pyrazole-3-carboxylic acid [(1S)-1-phenyl-ethyl]-amide] returned an IC50 on human CB1 receptor of 48 nM. Also, the inhibition at 0.2 µM on human CB-2 receptor (setting [1]) amounted to 17%.
The like results for `C[C@@H](NC(=O)c1nn(-c2ccc(Cl)cc2Cl)c2c1CSC/C2=C\c1ccc(F)cc1)c1ccccc1` [Cpd 63, (7Z)-1-(2,4-dichloro-phenyl)-7-(4-fluoro-benzylidene)-1,4,6,7-tetrahydro-thiopyrano[4,3-c]pyrazole-3-carboxylic acid [(1R)-1-phenyl-ethyl]-amide] were, in that order, 9 nM and 6%.
Turning to `CC(C)(C)OC(=O)N1CCN(NC(=O)c2nn(-c3ccc(Cl)cc3Cl)c3c2CSC/C3=C\c2ccc(F)cc2)CC1` [Cpd 64, 4-{[(7Z)-1-(2,4-dichloro-phenyl)-7-(4-fluoro-benzylidene)-1,4,6,7-tetrahydro-thiopyrano[4,3-c]pyrazole-3-carbonyl]-amino}-piperazine-1-carboxylic acid tert-butyl ester], the IC50 at human CB1 receptor was determined as 24 nM. Besides, at human CB-2 receptor, the inhibition at 0.2 µM is 0%.
The molecule `C[C@H](NC(=O)c1nn(-c2ccc(Cl)cc2Cl)c2c1CS(=O)(=O)C/C2=C\c1ccc(F)cc1)c1ccccc1` [Cpd 65, (7Z)-1-(2,4-dichloro-phenyl)-7-(4-fluoro-benzylidene)-5,5-dioxo-4,5,6,7-tetrahydro-1H-5λ^6-thiopyrano[4,3-c]pyrazole-3-carboxylic acid [(1S)-1-phenyl-ethyl]-amide] showed an IC50 on human CB1 receptor of 5 nM. Further, the inhibition at 0.2 µM at human CB-2 receptor (setting [1]) amounted to 17%.
The like results for `C[C@@H](NC(=O)c1nn(-c2ccc(Cl)cc2Cl)c2c1CS(=O)(=O)C/C2=C\c1ccc(F)cc1)c1ccccc1` [Cpd 66, (7Z)-1-(2,4-dichloro-phenyl)-7-(4-fluoro-benzylidene)-5,5-dioxo-4,5,6,7-tetrahydro-1H-5λ^6-thiopyrano[4,3-c]pyrazole-3-carboxylic acid [(1R)-1-phenyl-ethyl]-amide] were, in that order, 4 nM and 24%.
As to `O=C(N[C@@H]1CCC[C@H]1O)c1nn(-c2ccc(Cl)cc2Cl)c2c1CS(=O)(=O)C/C2=C\c1ccc(F)cc1` [Cpd 67, (7Z)-1-(2,4-dichloro-phenyl)-7-(4-fluoro-benzylidene)-5,5-dioxo-4,5,6,7-tetrahydro-1H-5λ^6-thiopyrano[4,3-c]pyrazole-3-carboxylic acid [(1R,2R)-2-hydroxy-cyclopentyl]-amide], the inhibition at 0.2 µM on human CB1 receptor was 46%; at human CB-2 receptor (setting [1]), 15%.
With `O=C(N[C@H]1CCCC[C@@H]1O)c1nn(-c2ccc(Cl)cc2Cl)c2c1CS(=O)(=O)C/C2=C\c1ccc(F)cc1` [Cpd 68, (7Z)-1-(2,4-dichloro-phenyl)-7-(4-fluoro-benzylidene)-5,5-dioxo-4,5,6,7-tetrahydro-1H-5λ^6-thiopyrano[4,3-c]pyrazole-3-carboxylic acid [(1S,2S)-2-hydroxy-cyclohexyl]-amide], the inhibition at 0.2 µM on human CB1 receptor was found to be 52%; at human CB-2 receptor (setting [1]) it was 19%.
At human CB1 receptor, `O=C(N[C@@H]1c2ccccc2C[C@@H]1O)c1nn(-c2ccc(Cl)cc2Cl)c2c1CS(=O)(=O)C/C2=C\c1ccc(F)cc1` [Cpd 69, (7Z)-1-(2,4-dichloro-phenyl)-7-(4-fluoro-benzylidene)-5,5-dioxo-4,5,6,7-tetrahydro-1H-5λ^6-thiopyrano[4,3-c]pyrazole-3-carboxylic acid [(1R,2S)-2-hydroxy-indan-1-yl]-amide] returned an IC50 of 23 nM. On human CB-2 receptor (setting [1]), the inhibition at 0.2 µM stood at 10%.
